Where two headings read alike, the source gives them in different places.
Columns and labels:
[1] = target: PARP-1 enzyme (Homo sapiens, UniProt P09874); test: In vitro scintillation proximity assay (SPA) for PARP-1 inhibitory activity; assay type: biochemical
Procedure: In Vitro Scintillation Proximity Assay (SPA) for PARP-1 Inhibitory Activity
Compounds of the present invention were tested in an in vitro assay based on SPA technology (proprietary to Amersham Pharmacia Biotech).
In principle, the assay relies upon the well established SPA technology for the detection of poly(ADP-ribosyl)ation of biotinylated target proteins, i.e histones. This ribosylation is induced using nicked DNA activated PARP-1 enzyme and [^3H]-nicotinamide adenine dinucleotide ([^3H]-NAD^+) as ADP-ribosyl donor.
As inducer of PARP-1 enzyme activity, nicked DNA was prepared. For this, 25 mg of DNA (supplier: Sigma) was dissolved in 25 ml DNAse buffer (10 mM Tris-HCl, pH 7.4; 0.5 mg/ml Bovine Serum Albumine (BSA); 5 mM MgCl2.6H2O and 1 mM KCl) to which 50 μl DNAse solution (1 mg/ml in 0.15 M NaCl) was added. After an incubation of 90 min. at 37° C., the reaction was terminated by adding 1.45 g NaCl, followed by a further incubation at 58° C. for 15 min. The reaction mixture was cooled on ice and dialysed at 4° C. for respectively 1.5 and 2 hours against 1.5 l of 0.2 M KCl, and twice against 1.5 l of 0.01 M KCl for 1.5 and 2 h respectively. The mixture was aliquoted and stored at −20° C. Histones (1 mg/ml, type II-A, supplier: Sigma) were biotinylated using the biotinylation kit of Amersham and stored aliquoted at −20° C. A stock solution of 100 mg/ml SPA poly(vinyl toluene) (PVT) beads (supplier: Amersham) was made in PBS. A stock solution of [^3H]-NAD^+ was made by adding 120 μl of [^3H]-NAD^+ (0.1 mCi/ml, supplier: NEN) to 6 ml incubation buffer (50 mM Tris/HCl, pH 8; 0.2 mM DTT; 4 mM MgCl2). A solution of 4 mM NAD^+ (supplier: Roche) was made in incubation buffer (from a 100 mM stock solution in water stored at −20° C.). The PARP-1 enzyme was produced using art known techniques, i.e. cloning and expression of the protein starting from human liver cDNA. Information concerning the used protein sequence of the PARP-1 enzyme including literature references can be found in the Swiss-Prot database under primary accession number P09874. Biotinylated histones and PVT-SPA beads were mixed and pre-incubated for 30 min. at room temperature. PARP-1 enzyme (concentration was lot dependent) was mixed with the nicked DNA and the mixture was pre-incubated for 30 min. at 4° C. Equal parts of this histones/PVT-SPA beads solution and PARP-1 enzyme/DNA solution were mixed and 75 μl of this mixture together with 1 μl of compound in DMSO and 25 μl of [^3H]-NAD^+ was added per well into a 96-well microtiterplate. The final concentrations in the incubation mixture were 2 μg/ml for the biotinylated histones, 2 mg/ml for the PVT-SPA beads, 2 μg/ml for the nicked DNA and between 5-10 μg/ml for the PARP-1 enzyme. After incubation of the mixture for 15 min. at room temperature, the reaction was terminated by adding 100 μl of 4 mM NAD in incubation buffer (final concentration 2 mM) and plates were mixed.
The beads were allowed to sediment for at least 15 min. and plates transferred to a TopCountNXT™ (Packard) for scintillation counting, values were expressed as counts per minute (cpm). For each experiment, controls (containing PARP-1 enzyme and DMSO without compound), a blank incubation (containing DMSO but no PARP-1 enzyme or compound) and samples (containing PARP-1 enzyme and compound dissolved in DMSO) were run in parallel. All compounds tested were dissolved and eventually further diluted in DMSO. […] In each test, the blank value was subtracted from both the control and the sample values. The control sample represented maximal PARP-1 enzyme activity. For each sample, the amount of cpm was expressed as a percentage of the mean cpm value of the controls. When appropriate, IC50-values (concentration of the drug, needed to reduce the PARP-1 enzyme activity to 50% of the control) were computed using linear interpolation between the experimental points just above and below the 50% level. […]

[2] = [3H]-NAD+, nicked DNA, biotinylated histones, read-out: in vitro SPA assay PARP-1 pIC50 (converted)

Sequence of PARP-1 enzyme (P09874 whole entry): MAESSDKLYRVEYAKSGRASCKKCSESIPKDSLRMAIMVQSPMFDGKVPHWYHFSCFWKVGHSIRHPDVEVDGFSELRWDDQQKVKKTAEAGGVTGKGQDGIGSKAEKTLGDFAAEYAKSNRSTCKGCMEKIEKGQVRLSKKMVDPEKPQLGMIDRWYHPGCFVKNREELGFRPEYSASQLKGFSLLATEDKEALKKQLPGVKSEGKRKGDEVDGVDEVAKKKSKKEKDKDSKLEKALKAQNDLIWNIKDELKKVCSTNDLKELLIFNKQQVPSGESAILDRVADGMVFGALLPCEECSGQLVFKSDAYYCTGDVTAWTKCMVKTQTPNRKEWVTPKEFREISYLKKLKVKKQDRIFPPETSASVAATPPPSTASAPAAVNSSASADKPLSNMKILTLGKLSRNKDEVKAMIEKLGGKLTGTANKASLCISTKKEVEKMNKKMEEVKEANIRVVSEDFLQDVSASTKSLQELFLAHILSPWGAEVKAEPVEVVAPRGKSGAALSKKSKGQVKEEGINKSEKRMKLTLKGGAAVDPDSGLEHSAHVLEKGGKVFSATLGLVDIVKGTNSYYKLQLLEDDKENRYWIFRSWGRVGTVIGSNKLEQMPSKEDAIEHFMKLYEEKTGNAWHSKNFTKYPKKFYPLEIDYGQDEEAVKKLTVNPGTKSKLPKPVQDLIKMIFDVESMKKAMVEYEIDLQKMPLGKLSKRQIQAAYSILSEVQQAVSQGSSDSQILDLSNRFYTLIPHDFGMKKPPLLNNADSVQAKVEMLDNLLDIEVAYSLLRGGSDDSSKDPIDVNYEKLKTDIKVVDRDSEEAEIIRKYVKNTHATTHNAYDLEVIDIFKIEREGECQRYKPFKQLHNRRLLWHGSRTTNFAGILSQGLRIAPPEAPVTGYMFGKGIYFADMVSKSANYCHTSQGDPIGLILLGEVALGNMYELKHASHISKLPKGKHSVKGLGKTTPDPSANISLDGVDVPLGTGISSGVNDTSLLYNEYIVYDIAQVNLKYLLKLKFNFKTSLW

Compound | IC50 [1, 2] [nM] | melting point [°C] | IC50 [1] [nM]
NC(=O)C1(c2ccccc2)CCN(CCCC2NC(=O)c3ccccc3N2)CC1 (stereo not drawn) [Compound 5] | 22.9 | 216.1 | –
O=C1NCN(c2ccccc2)C12CCN(CCCc1nc3ccccc3c(=O)[nH]1)CC2 [Compound 2] | 385 | – | –
O=C1NC(CCN2CCC(n3c(=O)[nH]c4ccccc43)CC2)Nc2ccccc21 (stereo not drawn) [Compound 13] | – | – | 318
NC(=O)C1(c2ccccc2)CCN(CCCc2nc3ccccc3c(=O)[nH]2)CC1 [Compound 4] | 20 | 138.9 | –
O=C1NC(CCN2CCC3(CC2)C(=O)NCN3c2ccccc2)Nc2ccccc21 (stereo not drawn) [Compound 6] | 178 | – | –

Further lines, with some results ahead:

IC50 [1, 2] [nM] | Compound | melting point [°C] | IC50 [1] [nM]
117 | O=C(NC1CCN(CCCc2nc3ccccc3c(=O)[nH]2)CC1)c1ccccc1 [Compound 12] | – | –
560 | O=C(CC1CCN(CCc2nc3ccccc3c(=O)[nH]2)CC1)c1ccc(F)cc1 [Compound 3] | 159.1 | –
611 | O=C(c1ccc(F)cc1)C1CCN(CCc2nc3ccccc3c(=O)[nH]2)CC1 [Compound 9] | – | –
58.6 | O=C(c1ccc(F)cc1)C1CCN(CCCc2nc3ccccc3c(=O)[nH]2)CC1 [Compound 14] | – | –
188 | NC(=O)C1(N2CCOCC2)CCN(CCCc2nc3ccccc3c(=O)[nH]2)CC1 [Compound 11] | – | –
585 | O=C1NC(CCCN2CCC(n3c(=O)[nH]c4ccccc43)CC2)Nc2ccccc21 (stereo not drawn) [Compound 7] | – | –
236 | O=C(NC1CCN(CCCC2NC(=O)c3ccccc3N2)CC1)c1ccccc1 (stereo not drawn) [Compound 8] | – | –

— patent publication US7875621B2, “Substituted 2-alkyl quinazolinone derivatives as PARP inhibitors” (Janssen Pharmaceutica NV, priority 2004, dated 2011)
